Assay results published in patent publication US20120015809A1 (priority 2009, published 2012).
Structures can show the parent of a compound that is named as a salt. Where two headings read alike, the source gives them in different places.

System: Ralstonia solanacearum (race 1, biovar 1; tomato strain Rs5)
Details: 72 h; for Number of colonies: mean ± standard error (n = 6)

For `[H]/N=C(/N)N[C@H]1[C@H](O)[C@@H](O)[C@H](O[C@@H]2O[C@@H](C)[C@](O)(C=O)[C@H]2O[C@@H]2O[C@@H](CO)[C@H](O)[C@@H](O)[C@@H]2NC)[C@@H](N/C(N)=N\[H])[C@@H]1O` [Streptomycin, streptomycin sulfate], the “Mortality (%)” value (200 mg kg^−1 soil) was 0.9%, the Number of colonies (200 mg kg^−1 soil) was 256000 ± 16500 and the “Mortality (%)” value (400 mg kg^−1 soil) was 11.9%. For the same compound, the Number of colonies (400 mg kg^−1 soil) was 227000 ± 78100, the “Mortality (%)” value (800 mg kg^−1 soil) was 21.6% and the “Mortality (%)” value (800 mg kg^−1 soil, listed as streptomycin) was 21%. For the same compound, the Number of colonies (800 mg kg^−1 soil) was 204000 ± 82900, the “Mortality (%)” value (1500 mg kg^−1 soil) was 75.3% and the Number of colonies (1500 mg kg^−1 soil) was 63800 ± 42300.
